Data taken from PMC5399447, “Neuroprotective pentapeptide CN-105 is associated with reduced sterile inflammation and improved functional outcomes in a traumatic brain injury murine model” (Scientific Reports, 2017).

Assays:
Format in all cases: in vivo, mouse
[1] = tested on: murine closed head injury model (TBI); assay: Morris Water Maze after closed head injury
Description: The murine closed head injury model used in this study was previously described. The closed head impact results in injury to selectively vulnerable neurons in cortex and hippocampus, and is associated with vestibulomotor deficits and long term neurocognitive deficits. Although animals do lose body weight, they rapidly regain spontaneous ventilation, righting reflex, and the ability to ambulate. Briefly, 12–14 week-old C57Bl/6 J male mice(Jackson Laboratories, Bar Harbor, ME) were used. The trachea was intubated after anesthesia induction with 4.6% isoflurane and the lungs were mechanically ventilated with 1.6% isoflurane in 30% O2/70% N2. Core body temperature was maintained at 37 °C through a rectal probe. To avoid basilar skull fracture, ear bars are not used. The animal was secured in a stereotactic device in a prone position on a molded acrylic cast with surgical tape across the shoulders. The intubation tube was also secured to the acrylic cast with tape. The acrylic cast is designed to allow the mouse to have 3 mm of space below the head to allow for acceleration/decelaration of the head in this position. The head was shaved and the scalp was incised to expose the skull and identify anatomical landmarks. A concave 3-mm metallic disc was adhered to the skull immediately caudal to bregma. A 2.0-mm diameter pneumatic impactor(Air-Power Inc., High Point, NC) was used to deliver a single midline impact to the center of the disc surface. The impactor was discharged at 6.8 ± 0.2 m/second with a head displacement of 3 mm. After impact, the animals were allowed to recover spontaneous ventilation and then the tracheas were extubated. Mice were allowed free access to food and water. Sham mice were treated identically except for the absence of impact. All mice were housed in the same facility.
(§1) CN-105(Ac-VSRRR-amide) was synthesized by Polypeptide Inc.(San Diego, CA) to a purity of >99%, and was delivered in sterile normal saline. Animals were placed in a restrainer(Harvard Apparatus, Holliston, MA), and a single intravenous dose of drug(0.05 mg/kg) was administered by tail vein in a volume of 100 μL. Vehicle treated animals received intravenous injection of 100 μL of normal saline at the same time points. Animals were assigned to treatment group by a coded study identification number after injury using a paper randomization protocol. A block randomization scheme was used, so that an equal number of animals were randomized to each of the treatment groups during concurrent experiments.
As described previously the Morris Water Maze assesses spatial learning and memory by testing the ability of mice to locate a submerged platform. The mice were placed in a pool(105 cm diameter) filled with room temperature(25 °C) water made opaque with fat free powdered milk and allowed up to 90 seconds to locate the submerged platform. The mice performed four trials/day for 4 consecutive days(inter-trial interval = 30 min). The mice were introduced in varying quadrants of the pool for each trial but the location of the platform never varied. The latency to locate the platform was recorded, and the 4 trials per day were averaged. Mice were tested on days 28–31 post-injury(n = 11–12 mice per group). A probe trial was administered on day 4 of the experiment 3 hours after the last test trial was completed. For the probe trial, the platform was removed and the mice were allowed to swim freely for 60 seconds. The percent of the time the mice spent in the platform quadrant was quantified.

[2] = tested on: degenerating neurons in dentate gyrus of TBI mice; assay: Fluoro-Jade B staining of degenerating neurons; settings: 0.05 mg/kg, 24 hours post-injury, 6 vehicle and 6 CN-105 mice, p < 0.00001
Method: To assess the effects of CN-105 on inflammation, neuronal injury and neuronal loss, immunohistochemical(IHC) staining was performed using the F4/80 antibody(a marker for mature microglia and macrophages; rat monoclonal, 1:10,000; Serotec, Raleigh, NC) and the Fluoro-Jade B stain(a marker of degenerating neurons; Histo-Chem Inc. Jefferson, AR) on days 10 and 1, respectively, after TBI. IHC was performed on separate cohorts of mice from those used in neurobehavioral tests. As previously described, mice were anesthetized, euthanized, and perfused with 30 ml phosphate-buffered saline(PBS) via transcardiac puncture. The brains were then immersed in buffered formalin overnight and saturated with 30% sucrose in buffer. Sagittal sections(40 μm) were sliced on a freezing microtome and collected in cryoprotectant solution. […]
For Fluoro-Jade B, brain sections from 12 TBI mice(6 vehicle and 6 CN-105) containing the dorsal hippocampus(5–6 sections per animal) were examined for degenerating neurons using an epifluorescence microscope(Nikon, Tokyo, Japan) with a medium band blue excitation(Nikon B-2A, 450–490 nm) filter set. […] Degenerating neurons were counted and the total number of Fluoro-Jade B-positive neurons per every eighth brain slice was recorded. […]

[3] = tested on: TBI mice; assay: Tolerability after injury; settings: treatment after injury
Method: as §1

Substance: Ac-VSRRR-amide [CN-105]
- Morris Water Maze latency to platform compared to vehicle ([1]; 0.05 mg/kg iv 2 h after TBI, days 28-31, p = 0.036): significantly reduced time to escape to the platform
- Morris Water Maze probe trial compared to vehicle ([1]; 0.05 mg/kg iv 2 h after TBI, p = 0.0079): performed better on the probe trial
- Morris Water Maze swim speed compared to vehicle ([1]; 0.05 mg/kg iv 2 h after TBI, p = 0.4968): no difference in swim speed
- Morris Water Maze neurocognitive performance compared to vehicle ([1]; 0.05 mg/kg iv 4 hours post-injury): reduced deficit on Morris Water Maze testing
- Morris Water Maze probe trial compared to vehicle ([1]; 0.05 mg/kg iv 4 hours post-injury, p = 0.0211): performed better on the probe trial
- Morris Water Maze swim speed compared to vehicle ([1]; 0.05 mg/kg iv 4 hours post-injury, p = 0.0567): no significant difference in swim speed
- number of Fluoro-Jade B positive neurons, dorsal hippocampus, compared to vehicle [2]: significant decrease in the number of Fluoro-Jade B positive neurons
- tolerability [3]: well tolerated
